Source: ChEMBL document CHEMBL5046233, “Nitroxoline and its derivatives are potent inhibitors of metallo-β-lactamases” (Eur J Med Chem, 2022)
Values after ≈ are worked out from the molar mass of the structure shown.

Tests used:
[1] = Inhibition of recombinant NDM-1 (unknown origin) using fluorocillin as substrate at 30 uM incubated for 30 mins by fluorescence based assay; conditions: Bacteria
[2] = Inhibition of recombinant NDM-1 (unknown origin) using fluorocillin as substrate at 10 uM incubated for 30 mins by fluorescence based assay; conditions: Bacteria
[3] = Inhibition of recombinant NDM-1 (unknown origin) using fluorocillin as substrate at 3 uM incubated for 30 mins by fluorescence based assay; conditions: Bacteria
[4] = tested on: Bacteria; experiment: Inhibition of recombinant VIM-1 (unknown origin) using fluorocillin as substrate at 30 uM incubated for 30 mins by fluorescence based assay
[5] = tested on: Bacteria; experiment: Inhibition of recombinant VIM-1 (unknown origin) using fluorocillin as substrate at 10 uM incubated for 30 mins by fluorescence based assay
[6] = tested on: Bacteria; experiment: Inhibition of recombinant VIM-1 (unknown origin) using fluorocillin as substrate at 3 uM incubated for 30 mins by fluorescence based assay
[7] = tested on: Bacteria; experiment: Inhibition of recombinant IMP-1 (unknown origin) using fluorocillin as substrate at 30 uM incubated for 30 mins by fluorescence based assay
[8] = tested on: Bacteria; experiment: Inhibition of recombinant IMP-1 (unknown origin) using fluorocillin as substrate at 10 uM incubated for 30 mins by fluorescence based assay
[9] = tested on: Bacteria; experiment: Inhibition of recombinant IMP-1 (unknown origin) using fluorocillin as substrate at 3 uM incubated for 30 mins by fluorescence based assay
[10] = tested on: Klebsiella pneumoniae; experiment: Antimicrobial activity against Klebsiella pneumoniae clinical isolate T2301 expressing NDM-1 assessed as inhibition of bacterial growth by CLSI protocol based broth microdilution assay; assay type: functional
[11] = tested on: Escherichia coli; experiment: Antimicrobial activity against Escherichia coli clinical isolate T2228 expressing VIM-1 assessed as inhibition of bacterial growth by CLSI protocol based broth microdilution assay; assay type: functional

Cc1ccc2cccc(O)c2n1
inhibition [1]: < 20%
inhibition [2]: < 20%
inhibition [3]: < 20%

N#Cc1ccc2cccc(O)c2n1
inhibition [1]: < 20%
inhibition [2]: < 20%
inhibition [3]: < 20%

CN(C)Cc1ccc2c(Cl)cc(Cl)c(O)c2n1
inhibition [1]: 69%
inhibition [2]: < 20%
inhibition [3]: < 20%

N#CCNCc1cc([N+](=O)[O-])c2cccnc2c1O
inhibition [1]: 98%
inhibition [2]: 89%
inhibition [3]: 64%
inhibition [4]: 99%
inhibition [5]: 99%
inhibition [6]: 95%
inhibition [7]: 96%
inhibition [8]: 91%
inhibition [9]: 43%

c1cnc2c(c1)ccc1cccnc12
inhibition [1]: 68%
inhibition [2]: < 20%
inhibition [3]: < 20%

CN(CC#N)Cc1ccc2c([N+](=O)[O-])ccc(O)c2n1
inhibition [1]: 93%
inhibition [2]: 47%
inhibition [3]: < 20%
inhibition [4]: 92%
inhibition [5]: 53%
inhibition [6]: 23%
inhibition [7]: 78%
inhibition [8]: 38%
inhibition [9]: < 20%

O=S(=O)(O)c1ccc(O)c2ncccc12
inhibition [1]: 67%
inhibition [2]: < 20%
inhibition [3]: < 20%

Cc1ccc2c([N+](=O)[O-])cc([N+](=O)[O-])c(O)c2n1
inhibition [1]: < 20%
inhibition [2]: < 20%
inhibition [3]: < 20%

O=C(O)c1ccc2cccc(O)c2n1
inhibition [1]: 100%
inhibition [2]: 97%
inhibition [3]: 24%
inhibition [4]: 91%
inhibition [5]: 54%
inhibition [6]: 32%
inhibition [7]: 95%
inhibition [8]: 72%
inhibition [9]: 27%

O=C(O)c1ccc2c([N+](=O)[O-])ccc(O)c2n1
inhibition [1]: 100%
inhibition [2]: 95%
inhibition [3]: 20%
inhibition [4]: 99%
inhibition [5]: 99%
inhibition [6]: 70%
inhibition [7]: 99%
inhibition [8]: 96%
inhibition [9]: 74%

N#Cc1ccc2c([N+](=O)[O-])cc([N+](=O)[O-])c(O)c2n1
inhibition [1]: < 20%
inhibition [2]: < 20%
inhibition [3]: < 20%

CC(C)(O/N=C(\C(=O)N[C@@H]1C(=O)N2C(C(=O)[O-])=C(C[n+]3ccccc3)CS[C@H]12)c1csc(N)n1)C(=O)O [CEFTAZIDIME]
MIC [10]: 4.1 µg/mL (≈ 7.49 µM)
MIC [11]: 0.256 µg/mL (≈ 0.468 µM)

O=C(O)c1ccc([N+](=O)[O-])c2cccnc12
inhibition [1]: < 20%
inhibition [2]: < 20%
inhibition [3]: < 20%

CN(CC#N)C(=O)c1ccc2cccc(O)c2n1
inhibition [1]: < 20%
inhibition [2]: < 20%
inhibition [3]: < 20%

Nc1c([N+](=O)[O-])cc([N+](=O)[O-])c2cccnc12
inhibition [1]: < 20%
inhibition [2]: < 20%
inhibition [3]: < 20%

O=[N+]([O-])c1ccc(O)c2ccccc12
inhibition [1]: < 20%
inhibition [2]: < 20%
inhibition [3]: < 20%

O=[N+]([O-])c1cc(CNCc2ccccc2)c(O)c2ncccc12
inhibition [1]: 76%
inhibition [2]: 23%
inhibition [3]: < 20%

O=[N+]([O-])c1ccc(N2CCCC2)c2ncccc12
inhibition [1]: < 20%
inhibition [2]: < 20%
inhibition [3]: < 20%

Cc1cc(C)c2cccnc2c1O
inhibition [1]: < 20%
inhibition [2]: < 20%
inhibition [3]: < 20%

N#CCN(Cc1ccccc1)C(=O)c1ccc2cccc(O)c2n1
inhibition [1]: < 20%
inhibition [2]: < 20%
inhibition [3]: < 20%

O=[N+]([O-])c1cc([N+](=O)[O-])c2cccnc2c1O
inhibition [1]: < 20%
inhibition [2]: < 20%
inhibition [3]: < 20%

Oc1ccc(F)c2cccnc12
inhibition [1]: < 20%
inhibition [2]: < 20%
inhibition [3]: < 20%

Cc1ccc2c(Cl)cc(Cl)c(O)c2n1
inhibition [1]: 91%
inhibition [2]: 71%
inhibition [3]: < 20%
inhibition [4]: 84%
inhibition [5]: 58%
inhibition [6]: 20%
inhibition [7]: 92%
inhibition [8]: 73%
inhibition [9]: 22%

N#Cc1ccc2ccc([N+](=O)[O-])c(O)c2n1
inhibition [1]: < 20%
inhibition [2]: < 20%
inhibition [3]: < 20%

N#CCN(Cc1ccccc1)C(=O)c1ccc2c([N+](=O)[O-])cc([N+](=O)[O-])c(O)c2n1
inhibition [1]: < 20%
inhibition [2]: < 20%
inhibition [3]: < 20%

O=C(O)c1cc(O)c2ncccc2c1
inhibition [1]: < 20%
inhibition [2]: < 20%
inhibition [3]: < 20%

O=S(=O)(O)c1ccc(O)c2ccccc12
inhibition [1]: < 20%
inhibition [2]: < 20%
inhibition [3]: < 20%

N#CC1(NC(=O)c2ccc3c([N+](=O)[O-])ccc(O)c3n2)CC1
inhibition [1]: < 20%
inhibition [2]: < 20%
inhibition [3]: < 20%

CN(CC#N)Cc1cc([N+](=O)[O-])c2cccnc2c1O
inhibition [1]: 82%
inhibition [2]: < 20%
inhibition [3]: < 20%

CN(CC#N)C(=O)c1ccc2c([N+](=O)[O-])ccc(O)c2n1
inhibition [1]: < 20%
inhibition [2]: < 20%
inhibition [3]: < 20%

O=[N+]([O-])c1cc(O)c2ncccc2c1
inhibition [1]: 95%
inhibition [2]: < 20%
inhibition [3]: < 20%

N#CCOc1ccc([N+](=O)[O-])c2cccnc12
inhibition [1]: < 20%
inhibition [2]: < 20%
inhibition [3]: < 20%

N#CCNC(=O)c1ccc2cccc(O)c2n1
inhibition [1]: < 20%
inhibition [2]: < 20%
inhibition [3]: < 20%

CCNCc1cc([N+](=O)[O-])c2cccnc2c1O
inhibition [1]: 88%
inhibition [2]: 40%
inhibition [3]: < 20%
inhibition [4]: 98%
inhibition [5]: 53%
inhibition [6]: < 20%
inhibition [7]: 92%
inhibition [8]: 53%
inhibition [9]: < 20%

CO/N=C(\C(=O)N[C@@H]1C(=O)N2C(C(=O)O)=C(COC(N)=O)CS[C@H]12)c1ccco1 [CEFUROXIME]
MIC [10]: 8.19 µg/mL (≈ 19.3 µM)
MIC [11]: 1.02 µg/mL (≈ 2.41 µM)

O=C(O)c1cc([N+](=O)[O-])c2cccnc2c1O
inhibition [1]: < 20%
inhibition [2]: < 20%
inhibition [3]: < 20%

Nc1ccc2cccc(O)c2n1
inhibition [1]: < 20%
inhibition [2]: < 20%
inhibition [3]: < 20%

Nc1ccc2c([N+](=O)[O-])ccc(O)c2n1
inhibition [1]: 93%
inhibition [2]: 46%
inhibition [3]: < 20%
inhibition [4]: 72%
inhibition [5]: 37%
inhibition [6]: 20%
inhibition [7]: 74%
inhibition [8]: 38%
inhibition [9]: < 20%

O=C(O)c1ccc(O)c2ncccc12
inhibition [1]: 39%
inhibition [2]: < 20%
inhibition [3]: < 20%

O=C(O)CN(CCN(CC(=O)O)CC(=O)O)CC(=O)O
inhibition [1]: 87%
inhibition [2]: 87%
inhibition [3]: 84%

N#CCN(Cc1ccccc1)C(=O)c1ccc2c([N+](=O)[O-])ccc(O)c2n1
inhibition [1]: < 20%
inhibition [2]: < 20%
inhibition [3]: < 20%

N#CC1(NC(=O)c2cc([N+](=O)[O-])c3cccnc3c2O)CC1
inhibition [1]: < 20%
inhibition [2]: < 20%
inhibition [3]: < 20%

O=C(c1cc([N+](=O)[O-])c2cccnc2c1O)N1CCOCC1
inhibition [1]: 16%
inhibition [2]: < 20%
inhibition [3]: < 20%

N#CCNC(=O)c1ccc2c([N+](=O)[O-])ccc(O)c2n1
inhibition [1]: < 20%
inhibition [2]: < 20%
inhibition [3]: < 20%

CN(C)Cc1ccc2c([N+](=O)[O-])ccc(O)c2n1
inhibition [1]: < 20%
inhibition [2]: < 20%
inhibition [3]: < 20%

NC(=O)c1ccc([N+](=O)[O-])c2cccnc12
inhibition [1]: < 20%
inhibition [2]: < 20%
inhibition [3]: < 20%

Oc1ccc(Cl)c2cccnc12
inhibition [1]: 60%
inhibition [2]: < 20%
inhibition [3]: < 20%

Oc1c(Cl)cc(Cl)c2cccnc12
inhibition [1]: 99%
inhibition [2]: 98%
inhibition [3]: < 20%
inhibition [4]: 97%
inhibition [5]: 90%
inhibition [6]: 23%
inhibition [7]: 97%
inhibition [8]: 95%
inhibition [9]: 34%

Oc1ccc(C(F)(F)F)c2cccnc12
inhibition [1]: < 20%
inhibition [2]: < 20%
inhibition [3]: 13%

O=C(O)C[C@H](NCCN[C@@H](CC(=O)O)C(=O)O)C(=O)O
inhibition [1]: 86%
inhibition [2]: 84%
inhibition [3]: 84%

CN(CC#N)C(=O)c1ccc2c([N+](=O)[O-])cc([N+](=O)[O-])c(O)c2n1
inhibition [1]: < 20%
inhibition [2]: < 20%
inhibition [3]: < 20%

CCN1CCN(C(=O)N[C@@H](C(=O)N[C@@H]2C(=O)N3[C@@H]2SC(C)(C)[C@@H]3C(=O)O)c2ccccc2)C(=O)C1=O [PIPERACILLIN]
MIC [10]: 4.1 µg/mL (≈ 7.91 µM)
MIC [11]: 1.02 µg/mL (≈ 1.98 µM)

CC(=O)Nc1ccc([N+](=O)[O-])c2cccnc12
inhibition [1]: < 20%
inhibition [2]: < 20%
inhibition [3]: < 20%

Oc1ccc2cccc(O)c2n1
inhibition [1]: < 20%
inhibition [2]: < 20%
inhibition [3]: < 20%

O=C(O)COc1cccc2cccnc12
inhibition [1]: < 20%
inhibition [2]: < 20%
inhibition [3]: < 20%

Cc1ccc2c([N+](=O)[O-])ccc(O)c2n1
inhibition [1]: 35%
inhibition [2]: < 20%
inhibition [3]: < 20%

Nc1c(O)cc(S(=O)(=O)O)c2ccccc12
inhibition [1]: < 20%
inhibition [2]: < 20%
inhibition [3]: < 20%

O=C(O)c1ccc2c([N+](=O)[O-])cc([N+](=O)[O-])c(O)c2n1
inhibition [1]: 96%
inhibition [2]: 90%
inhibition [3]: < 20%
inhibition [4]: 86%
inhibition [5]: 57%
inhibition [6]: 34%
inhibition [7]: 91%
inhibition [8]: 47%
inhibition [9]: < 20%
